The test system of data set [1] is human lymphoblastic leukemic cells (CCRF-CEM). The data set is described as follows: XTT-tetrazolium cytotoxicity assay, CCRF-CEM. Type of data set: cell-based. Here is the method:
(§1) The effects of the compounds on cell growth were determined in all human tumor cells (i.e. T-cell acute lymphocytic leukemia CCRF-CEM), in a 72 h incubation, by XTT-tetrazolium assay, as described by Scudiero et al., Cancer Res. 1988, 48, 4827-4833. After the addition of phenazine methosulfate-XTT solution at 37° C. for 6 h, absorbance at 450 and 630 nm was detected on a microplate reader (EL 340; Bio-Tek Instruments Inc., Winooski, Vt.). Six to seven concentrations of each compound were used. The IC50 and dose-effect relationships of the compounds for antitumor activity were calculated by a median-effect plot (see, e.g., Chou et al. Adv. Enzyme Regul. 1984, 22, 27-55) using a computer program on an IBM-PC workstation (see, e.g., Chou et al. Dose-Effect Analysis with Microcomputers: Quantitation of ED50, LD50, Synergism, Antagonism, Low-Dose Risk, Receptor-Ligands Binding and Enzyme Kinetics; Biosoft: Cambridge, U.K., 1987).

The next data set has as its system CCRF-CEM/VBL. In words: XTT cytotoxicity assay, vinblastine-resistant subline. It is filed as cell-based, human. Particulars: for IC50: Homo sapiens, CCRF-CEM, XTT, 72 hours incubation, read-out: IC50 CCRF-CEM/VBL; for folds of resistance CCRF-CEM/VBL vs CCRF-CEM parent cells: number in bracket, ratio of IC50's. On the procedure: as §1
(§2) Data summarizing the growth inhibition of human lymphoblastic leukemic cells (CCRF-CEM) and its drug-resistant sublines (resistant to vinblastine and taxol, CCRF-CEM/VBL and CCRF-CEM/taxol, respectively) by compound 37 is shown in Table 4.
(Tetrazolium assays rely on reduction of a dye to a coloured formazan, in cell work by metabolically active cells.)

For a further data set, the system named is CCRF-CEM/Taxol. In words: XTT cytotoxicity assay, taxol-resistant subline. Particulars: for IC50: Homo sapiens, CCRF-CEM, XTT, 72 hours incubation, read-out: IC50 CCRF-CEM/Taxol; for folds of resistance CCRF-CEM/Taxol vs CCRF-CEM parent cells: number in bracket, ratio of IC50's. Type of data set: cell-based, human. On the procedure: as §1, §2
Another data set relates to A549. The data set is described as follows: SRB cytotoxicity assay, solid tumor cells A549. Type of data set: cell-based, human. Particulars: for IC50: Homo sapiens, A549, SRB. For orientation: In SRB staining, fixed cells bind dye roughly in proportion to their protein.
The test system of the next data set is HCT-116. In words: SRB cytotoxicity assay, solid tumor cells HCT-116. Type of data set: cell-based. Particulars: Homo sapiens, HCT-116; SRB, 72 hours incubation; read-out: IC50 HCT-116.
The subject of the next data set is Topo II. The data set is described as follows: Topo II-mediated relaxation of pRYG-DNA. It is filed as biochemical.
Where [2] appears, read: Homo sapiens, Table 4, XTT, 72 hours incubation, read-out: IC50 CCRF-CEM.
Where [3] appears, read: 72 hours incubation, read-out: IC50 A549.
Setting [4] is: incubation for 3 hours, washed, then incubated for a total of 72 hours (footnote b), read-out: IC50 A549 after washing.
The mark [5] stands for this setting: Table 1, Type 1 compounds, 72 h incubation, XTT.
Setting [6] is: Table 2, Type 2 compounds, 72 h incubation, XTT.

Structures can show the parent of a compound that is named as a salt. Where two headings read alike, the source gives them in different places.

One may read the melting point as the temperature, or range, at which the solid turns liquid.

The compound `Cc1cccc2c(Nc3ccc(OCCN(CCCl)CCCl)cc3)c3cccc(C(=O)NCCN(C)C)c3nc12` (as salt: salt) [Compound 44, 9-(4-{2-[Bis(2-chloroethyl)amino]ethoxy}phenylamino)-5-methylacridin-4-carboxylic acid (2-dimethylaminoethyl)amide] returned a melting point of 185 to 186 °C.
Regarding `Nc1cc(CO)cc(Nc2c3ccccc3nc3ccccc23)c1` [AHMA, 3-(9-acridinylamino)-5-hydroxymethylaniline], the IC50 in data set [1] (Homo sapiens, Table 1, Type 1 compounds, 72 h incubation, XTT, read-out: IC50) came out at 753 nM; in data set [1] (setting [2]), 753 ± 378 nM; in the data set with CCRF-CEM/VBL, 1600 nM; in the data set on CCRF-CEM/Taxol it was 600 ± 74 nM; with A549 (setting [3]), 47 nM; with A549 (setting [4]), 550 nM. Besides, the “folds of resistance CCRF-CEM/VBL vs CCRF-CEM parent cells” value (shortened to “folds of resistance CCRF-CEM/VBL”) in the data set on CCRF-CEM/VBL is on record as 2.1 ×. Moreover, the “folds of resistance CCRF-CEM/Taxol vs CCRF-CEM parent cells” value (“folds of resistance CCRF-CEM/Taxol” below) in the data set on CCRF-CEM/Taxol is reported as 0.8 ×. Also, the “reduction of potency when drug washed away” value with A549 (similar conditions, drug washed away) is given as “about 12 fold”.
As to `ClCCN(CCCl)CCOc1cccc(Nc2c3ccccc3nc3ccccc23)c1` [Compound 38, Acridin-9-yl-(3-{2-[bis(2-chloroethyl)amino]ethoxy}phenyl)amine], the IC50 in data set [1] (Homo sapiens, 72 h) stood at 95 nM.
On the same count and under the same terms, the result for `ClCCN(CCCl)CCCCOc1cccc(Nc2c3ccccc3nc3ccccc23)c1` [Compound 39, Acridin-9-yl-(3-{4-[bis(2-chloroethyl)amino]butoxy}phenyl)amine] reads 456 nM; that for `ClCCN(CCCl)CCOc1ccc(Nc2c3ccccc3nc3ccccc23)cc1` [Compound 40, Acridin-9-yl-(4-{2-[bis(2-chloroethyl)amino]ethoxy}phenyl)amine], 20 nM.
Same read-out and setting: the result for `ClCCN(CCCl)CCCCOc1ccc(Nc2c3ccccc3nc3ccccc23)cc1` [Compound 41, Acridin-9-yl-(4-{4-[bis(2-chloroethyl)amino]buoxy}phenyl)amine] reads 61 nM.
Take `Cc1cccc2c(Nc3cccc(OCCN(CCCl)CCCl)c3)c3cccc(C(=O)NCCN(C)C)c3nc12` [Compound 42, 9-(3-{2-[Bis(2-chloroethyl)amino]ethoxy}phenylamino)-5-methylacridin-4-carboxylic acid (2-dimethylaminoethyl)amide]: in data set [1] (setting [5]), the IC50 came to 3 nM.
The same measure, in the same setting: the result for `Cc1cccc2c(Nc3cccc(OCCCCN(CCCl)CCCl)c3)c3cccc(C(=O)NCCN(C)C)c3nc12` [Compound 43, 9-(3-{4-[Bis(2-chloroethyl)amino]butoxy}phenylamino)-5-methylacridin-4-carboxylic acid (2-dimethylaminoethyl)amide] reads 23.5 nM; that for `Cc1cccc2c(Nc3ccc(OCCN(CCCl)CCCl)cc3)c3cccc(C(=O)NCCN(C)C)c3nc12` [Compound 44, 9-(4-{2-[Bis(2-chloroethyl)amino]ethoxy}phenylamino)-5-methylacridin-4-carboxylic acid (2-dimethylaminoethyl)amide], 773 nM; that for `Cc1cccc2c(Nc3ccc(OCCCCN(CCCl)CCCl)cc3)c3cccc(C(=O)NCCN(C)C)c3nc12` [Compound 45, 9-(4-{4-[Bis(2-chloroethyl)amino]butoxy}phenylamino)-5-methylacridin-4-carboxylic acid (2-dimethylaminoethyl)amide], 23 nM.
On the same count and under the same terms, the result for `ClCCN(CCCl)Cc1cccc(Nc2c3ccccc3nc3ccccc23)c1` [Compound 46, Acridin-9-yl-(3-{[bis-(2-chloroethyl)amino]methyl}phenyl)amine] reads 7.4 nM; that for `ClCCN(CCCl)Cc1ccc(Nc2c3ccccc3nc3ccccc23)cc1` [Compound 47, Acridin-9-yl-(4-{[bis(2-chloroethyl)amino]methyl}phenyl)amine], 30 nM.
The same measure, in the same setting: the result for `Cc1cccc2c(Nc3cccc(CN(CCCl)CCCl)c3)c3cccc(C(=O)NCCN(C)C)c3nc12` [Compound 48, 9-(3-{[Bis(2-chloroethyl)amino]methyl}phenylamino)-5-methylacridine-4-carboxylic acid (2-dimethylaminoethyl)amide] reads 1.7 nM.
In the case of `Cc1cccc2c(Nc3ccc(CN(CCCl)CCCl)cc3)c3cccc(C(=O)NCCN(C)C)c3nc12` [Compound 49, 9-(4-{[Bis(2-chloroethyl)amino]methyl}phenylamino)-5-methylacridin-4-carboxylic acid (2-dimethylaminoethyl)amide], the IC50 in data set [1] (setting [5]) was determined as 8.1 nM.
In the case of `Nc1cc(CO)cc(Nc2c3ccccc3nc3c(OCCN(CCCl)CCCl)cccc23)c1` [Compound 50, [3-Amino-5-(4-{2-[bis(2-chloroethyl)amino]ethoxy}acridin-9-ylamino)phenyl]methanol], in data set [1] (setting [6]), the IC50 was determined as 7.2 nM.
Same read-out and setting: next, `CCOC(=O)Nc1cc(CO)cc(Nc2c3ccccc3nc3c(OCCN(CCCl)CCCl)cccc23)c1` [Compound 51]: 26 nM; `Nc1cc(CO)cc(Nc2c3ccccc3nc3c(OCCCCN(CCCl)CCCl)cccc23)c1` [Compound 52, [3-Amino-5-(4-{4-[bis-(2-chloroethyl)amino]butoxy}acridin-9-ylamino)phenyl]-methanol]: 4.6 nM; `OCc1cc(O)cc(Nc2c3ccccc3nc3c(OCCN(CCCl)CCCl)cccc23)c1` [Compound 53, 3-(4-{2-[Bis-(2-chloroethyl)amino]ethoxy}acridin-9-ylamino)-5-hydroxymethylphenol]: 6.1 nM.
As to `ClCCN(CCCl)CCOc1cccc(Nc2c3ccccc3nc3c(OCCN(CCCl)CCCl)cccc23)c1` [Compound 54, (4-{2-[Bis-(2-chloroethyl)amino]ethoxy}acridin-9-yl)-(3-{2-[bis(2-chloroethyl)-amino]ethoxy}phenyl)amine], the IC50 in data set [1] (Homo sapiens, 72 h) was 18.6 nM.
The same measure, in the same setting: the result for `ClCCN(CCCl)CCCCOc1cccc(Nc2c3ccccc3nc3c(OCCN(CCCl)CCCl)cccc23)c1` [Compound 55] reads 6 nM; that for `ClCCN(CCCl)CCOc1ccc(Nc2c3ccccc3nc3c(OCCN(CCCl)CCCl)cccc23)cc1` [Compound 56, (4-[2-[Bis(2-chloroethyl)amino]ethoxy]acridin-9-yl)-(4-{2-[bis(2-chloroethyl)amino]-ethoxy}phenyl)amine], 17.3 nM.
Consider `ClCCN(CCCl)CCCCOc1cccc(Nc2c3ccccc3nc3c(OCCN(CCCl)CCCl)cccc23)c1` [Compound 58], for which the IC50 in data set [1] (Table 3, Type 3 compounds, 72 h incubation, XTT, read-out: IC50) was 25 nM.
For `CC(=O)O[C@H]1C(=O)[C@@]2(C)[C@H]([C@H](OC(=O)c3ccccc3)[C@]3(O)C[C@H](OC(=O)[C@H](O)[C@@H](NC(=O)c4ccccc4)c4ccccc4)C(C)=C1C3(C)C)[C@]1(OC(C)=O)CO[C@@H]1C[C@@H]2O` [Taxol], the IC50 in data set [1] (setting [2]) is 1.5 ± 0.5 nM; with CCRF-CEM/VBL it was 1620 nM; in the data set on CCRF-CEM/Taxol, 143 ± 7 nM; in the data set with A549 (setting [3]), 1.9 nM; in the data set on A549 (setting [4]), 390 nM; in the data set on HCT-116 it was 1.3 nM. Also, the “folds of resistance CCRF-CEM/VBL” value with CCRF-CEM/VBL is given as 1080 ×. For the same compound, the “folds of resistance CCRF-CEM/Taxol” value with CCRF-CEM/Taxol is 95.3 ×.
In the case of `COc1cc([C@@H]2c3cc4c(cc3[C@@H](O[C@@H]3O[C@@H]5CO[C@@H](C)O[C@H]5[C@H](O)[C@H]3O)[C@H]3COC(=O)[C@H]23)OCO4)cc(OC)c1O` [VP-16], the “Topo II-mediated relaxation of pRYG-DNA” value with Topo II is listed as “inhibited DNA relaxation”.
Take `CC[C@]1(O)C[C@@H]2CN(CCc3c([nH]c4ccccc34)[C@@](C(=O)OC)(c3cc4c(cc3OC)N(C)[C@H]3[C@@](O)(C(=O)OC)[C@H](OC(C)=O)[C@]5(CC)C=CCN6CC[C@]43[C@@H]65)C2)C1` [Vinblastine]: the IC50 in data set [1] (setting [2]) was determined as 1.2 nM; in the data set with CCRF-CEM/VBL, 540 nM; in the data set with CCRF-CEM/Taxol, 29 nM; with A549 (setting [3]), 8.1 nM; in the data set on A549 (setting [4]) it was 95 nM; with HCT-116, 1.4 nM. For the same compound, the “folds of resistance CCRF-CEM/VBL” value in the data set with CCRF-CEM/VBL is listed as 450 ×. In addition, the “folds of resistance CCRF-CEM/Taxol” value in the data set with CCRF-CEM/Taxol came to 24.2 ×.
As to AHMA-tert-butylcarbamate, the “Topo II-mediated relaxation of pRYG-DNA” value with Topo II was “inhibited DNA relaxation”.

The record behind these values is patent US20080176889A1, “9-anilinoacridine alkylating agents” (priority 2004, published 2008).
